For series [1] the following is noted: cited from earlier work; for Rate constant k: Table 1, singlet oxygen scavengers, measured in specified solvents.
Series [2] deals with T1, glucose oxidase (Aspergillus niger, UniProt P13006).
T1 construct: purchased Biocatalysts G575P
In words: Activity recovery of glucose oxidase in dry formulations following gamma irradiation. In kind it is physicochemical. To be noted: for Enzyme activity remaining after gamma-irradiation: glucose oxidase 350 μg mL^−1 prior to drying, dry, 25-40 kGy, ambient temperature. The method, then:
(§1) In each example, an aqueous solution of a protein was prepared with selected additives in an Eppendorf tube or in a glass vial. Water was removed from the formulation by drying under a stream of nitrogen at 30° C. and subsequent incubation at atmospheric pressure in the presence of a dessicant. The Eppendorf tubes or the glass vials were sealed and delivered to an industrial sterilisation service for gamma irradiation, with a dose range typical for sterile medical products. The gamma-irradiated samples were reconstituted on their return and analysed for protein activity or structural integrity. The results were compared with those achieved using control (i.e. non-irradiated) samples.
(§2) The dry samples (approx. 20 μg in an Eppendorf tube) were gamma-irradiated by an industry-standard commercial sterilising service provided by Isotron PLC (Swindon, Wilts, UK), using a Cobalt 60 gamma source at ambient temperature. The radiation dose was in the range of 25-40 kGy.
The original solutions (i.e. solutions prior to drying) contained 350 μg mL^−1 of glucose oxidase and typically the total of 100 mM of protective compounds (i.e. 100 mM in case of a single compound, 50 mM+50 mM in case of two compounds, 33.3 mM+33.3 mM+33.3 mM in the case of three compounds etc.). The solutions were dried and gamma irradiated. Following the gamma irradiation, the samples, both pre- and post-gamma irradiated, were assayed for glucose oxidase activity. This was performed according to the following procedure:
Water was added to the sample to achieve 350 μg mL^−1 of glucose oxidase. 50 μL of the solution was added to 50 mL of deionised water. The following solutions were then added: • 10 mL of reagent mix (5 parts of 0.1 M sodium phosphate, pH 6+4 parts 2% w/w starch+1 part of 1 mg/mL lactoperoxidase enzyme); • 5 mL of 100 mM potassium iodide; and • 5 mL of 20% w/w glucose solution.
These were mixed together quickly. Time=0 was counted from the addition of the glucose. After 5 min, 1 ml of 5 M aq. hydrochloric acid was added to stop the reaction. The absorbance was then read at 630 nm using a Unicam UV-visible spectrophotometer (Type: Helios gamma). If the colour intensity was too great to allow an accurate reading, the sample was diluted with a defined volume of deionised water to bring the colour back on scale. The results were expressed as percentage recovery, by reference to the absorbance measured in the pre-gamma irradiation samples.

Series [3] deals with T2, human growth hormone (Homo sapiens, UniProt P01241).
T2 construct: purchased National Institute of Biological Standards and Control; further samples on prescription from a GP surgery
T2 sequence (P01241 27-217): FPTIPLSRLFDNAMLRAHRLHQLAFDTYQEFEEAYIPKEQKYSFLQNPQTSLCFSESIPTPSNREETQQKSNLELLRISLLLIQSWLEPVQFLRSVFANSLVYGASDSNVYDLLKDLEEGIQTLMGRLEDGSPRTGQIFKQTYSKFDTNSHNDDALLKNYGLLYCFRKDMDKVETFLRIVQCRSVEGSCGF
Nature of the series: Recovery of structural integrity of human growth hormone in dry formulations following gamma irradiation (HPLC). As to conditions: as excipient in the formulation, disulphide bridge, HPLC. In kind it is physicochemical.

Series [4] addresses T3, catalase (Bos taurus, UniProt P00432).
T3 construct: Catalase (from bovine liver, Sigma C9322, 2380 U /mg solid); purchased Sigma C9322; host or cells: bovine liver
T3 sequence (P00432 2-527 limits assumed): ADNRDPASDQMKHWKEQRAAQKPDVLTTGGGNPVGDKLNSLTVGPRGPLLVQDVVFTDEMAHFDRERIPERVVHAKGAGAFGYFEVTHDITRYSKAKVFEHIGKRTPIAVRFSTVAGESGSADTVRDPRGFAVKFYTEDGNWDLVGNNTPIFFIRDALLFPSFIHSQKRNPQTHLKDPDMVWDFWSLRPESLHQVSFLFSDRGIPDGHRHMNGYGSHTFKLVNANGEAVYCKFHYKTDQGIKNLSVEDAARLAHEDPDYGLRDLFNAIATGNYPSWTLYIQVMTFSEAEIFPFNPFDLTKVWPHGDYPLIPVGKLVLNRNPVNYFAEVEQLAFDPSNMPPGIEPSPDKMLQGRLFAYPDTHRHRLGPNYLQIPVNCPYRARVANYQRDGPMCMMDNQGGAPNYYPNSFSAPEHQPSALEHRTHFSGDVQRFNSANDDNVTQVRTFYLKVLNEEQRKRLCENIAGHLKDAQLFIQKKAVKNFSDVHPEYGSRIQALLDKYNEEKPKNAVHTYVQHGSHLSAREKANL
Nature of the series: Activity recovery of catalase in dry formulations following gamma irradiation. In kind it is physicochemical, bovine. As to conditions: Table 6, singlet oxygen scavengers; catalase 100 μg mL^−1 prior to drying; dry; 25-40 kGy, ambient temperature. The method, then: as §1, §2
The original solutions (i.e. solutions prior to drying) contained 100 μg mL^−1 of catalase and typically the total of 100 mM of protective compounds (i.e. 100 mM in case of a single compound, 50 mM+50 mM in case of two compounds, 33.3 mM+33.3 mM+33.3 mM in the case of three compounds etc.). The solutions were dried and gamma irradiated. Following the gamma irradiation, the samples, both pre- and post-gamma irradiated, were assayed for […] activity. This was performed according to the following procedure:
Water was added to the sample to achieve 100 μg mL^−1 of catalase. 100 μL of the solution was added to a mixture of 18 mL of PBS and 2 mL of hydrogen peroxide (30 mM in water) in a 125 mL polypropylene pot and mixed. The resulting mixture was incubated at room temperature precisely for 30 min. In the meantime, the following reagents were mixed in a plastic cuvette for spectrophotometric measurements: • 2.73 mL of citrate/phosphate buffer (0.1 M, pH 5.0) • 100 μL of tetramethylbenzidine (TMB) (3 mg/mL, dissolved in dimethyl sulphoxide (DMSO)) • 100 μL of lactoperoxidase
Following the 30 min incubation period, 70 μL of the catalase containing mixture was added to the cuvette and absorbance was read in approximately 30 s. The results were expressed as percentage recovery, by reference to the absorbance measured in the fresh samples (i.e. prior to incubation at increased temperature).

Series [5] addresses T2, human growth hormone. Nature of the series: Recovery of structural integrity of human growth hormone in dry formulations following gamma irradiation (HPLC). In kind it is physicochemical. To be noted: Table 7, singlet oxygen scavengers, structural integrity by HPLC, human growth hormone 2.5 mg mL^−1 prior to drying, 25-40 kGy. On the procedure:
as §1, §2
Mobile phase was prepared by mixing 71 parts (by volume) of a solution of TRIS (0.05 M, in water adjusted with hydrochloric acid to a pH of 7.5) and 29 parts (by volume) of n-propylalcohol. The mobile phase was filtered prior to its use. The liquid chromatograph (Agilent 1100 series) was equipped with a 214 nm detector and a 4.6×250 mm column (Phenomenex 00G-4167-E0) packed with butylsilyl silica gel with a granulometry of 5 μm and a porosity of 30 nm, maintained at 45° C. The flow rate was maintained at 0.5 mL min^−1. 15 μL of aqueous samples of human growth hormone (typically 1-2.5 mg mL^−1) were injected. Results were expressed as % of peak area corresponding to the gamma irradiated sample with respect to that measured in non-irradiated sample.

Series [6] relates to Sandostatin. Nature of the series: Recovery of structural integrity of Sandostatin in dry formulations following gamma irradiation (HPLC). In kind it is physicochemical. To be noted: Table 8, singlet oxygen scavengers, structural integrity by HPLC, excipient:Sandostatin weight ratio 10:1, 25-40 kGy. On the procedure: as §1, §2
Mobile phase A was 0.1 M triethylamine adjusted to pH 2.3 with phosphoric acid. Mobile phase B was acetonitrile. The mobile phases were filtered prior to their use. The following linear gradient was used: time 0: 90% A+10% B; time 35 min: 60% A+40% B. The liquid chromatograph (Agilent 1100 series) was equipped with a 214 nm detector, guard column and a 4.6×150 mm C18 column with a granulometry of 5 μm and a porosity of 30 nm, maintained at ambient temperature. The flow rate was maintained at 1.0 mL min^−1. Injection volume was 50 μL (typically sandostatin at 200 μg mL^−1). Results were expressed as % of main peak area (i.e. area of the peak corresponding to intact sandostatin measured in the gamma irradiated sample with respect to that measured in non-irradiated sample of identical composition). A chromatogram of a standard solution of sandostatin was recorded after every 12 samples to ensure that no drift in the position of the major peak had occurred. The control measurements ruled out any ambiguity in interpreting the chromatograms.

[7] abbreviates: Table 5, singlet oxygen scavengers.

Like-named read-outs stand apart in the source and are kept apart here.

T1 sequence (P13006 17-605): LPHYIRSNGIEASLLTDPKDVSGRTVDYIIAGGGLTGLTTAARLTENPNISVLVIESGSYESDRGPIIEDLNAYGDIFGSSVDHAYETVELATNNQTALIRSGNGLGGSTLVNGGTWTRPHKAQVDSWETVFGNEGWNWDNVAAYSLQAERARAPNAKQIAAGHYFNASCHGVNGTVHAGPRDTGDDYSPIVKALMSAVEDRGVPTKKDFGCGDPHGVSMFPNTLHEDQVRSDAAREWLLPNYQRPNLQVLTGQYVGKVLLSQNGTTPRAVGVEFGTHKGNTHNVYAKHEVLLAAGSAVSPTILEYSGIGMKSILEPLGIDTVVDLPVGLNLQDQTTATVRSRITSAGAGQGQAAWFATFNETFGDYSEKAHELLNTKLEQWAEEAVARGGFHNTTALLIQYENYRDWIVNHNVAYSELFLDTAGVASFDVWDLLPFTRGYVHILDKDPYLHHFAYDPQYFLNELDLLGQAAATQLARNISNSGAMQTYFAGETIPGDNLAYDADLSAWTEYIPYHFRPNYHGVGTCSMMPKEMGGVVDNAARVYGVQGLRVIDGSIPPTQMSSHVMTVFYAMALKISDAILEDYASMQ

On to `N[C@@H](CS)C(=O)O` [Cysteine], for which the Rate constant k result in series [1] was “k = 5 × 10^7 L mol^−1 s^−1”. For the same compound, the “Enzyme activity remaining after gamma-irradiation” value (shortened to “Enzyme activity remaining”) in series [2] (Table 3, prior-art antioxidants, vs non-irradiated) is recorded as 49.1%. In addition, the “Compatibility of the compound with human growth hormone” value in series [3] is on record as “**Compound was found incompatible with human growth hormone”; in series [3] (listed as cysteine), “incompatibility with human growth hormone”.

In the case of `CC(=O)N[C@@H](CS)C(=O)O` [N-Acetylcysteine], the “Compatibility of the compound with glucose oxidase” value in series [2] (as excipient in the formulation) was “**Compound was found incompatible with glucose oxidase”. The figures for the “Compatibility of the compound with human growth hormone” value in series [3] and in series [3] (listed as N-acetylcysteine) were “**Compound was found incompatible with human growth hormone” and “incompatibility with human growth hormone”, respectively.

Turning to `Cc1ncc(C[n+]2csc(CCO)c2C)c(N)n1` [Thiamine], the Rate constant k result in series [1] is recorded as “k = 6 × 10^7 L mol^−1 s^−1”. Further, the “Rate of reaction with singlet oxygen” value in series [1] (Table 5), in series [1] (Table 6), in series [1] (Table 7) and in series [1] (Table 8) was 6e+07 M⁻¹ s⁻¹ throughout. In addition, the entries for the “Enzyme activity remaining” value in series [2] (setting [7]), in series [4] and in series [6] were 43.1%, 26.1% and 87.7%, respectively. Moreover, the “Structural integrity remaining after gamma-irradiation (HPLC)” value in series [5] was found to be 48.8%.

For the compound `N[C@@H](Cc1c[nH]c2ccccc12)C(=O)O` [Tryptophan], the Rate constant k entry in series [1] is “k = 1.3 × 10^7 L mol^−1 s^−1”. Moreover, the “Rate of reaction with singlet oxygen” value in series [1] (Table 5), in series [1] (Table 6), in series [1] (Table 7) and in series [1] (Table 8) was 1.3e+07 M⁻¹ s⁻¹ each time. Moreover, the “Enzyme activity remaining” value in series [2] (setting [7]) is 37.0%; in series [4], 9.1%; in series [6] it was 82.2%. Moreover, the “Structural integrity remaining after gamma-irradiation (HPLC)” value in series [5] stood at 54.6%.

These data come from patent publication US20100029542A1, “PROTEIN STERILISATION BY RADIATION AND ADDITION OF A STABILISING COMPOSITION” (priority 2006, published 2010).
